Legend:
B6 male mice [1] = assay: Fatty liver after three-month treatment; format: in vivo, mouse; settings: three months
Protocol: B6 male mice (8-week-old) were daily subjected for three months to a subcutaneous injection of either vehicle (NaCl 0.9%), Dex, CpdX, CpdX(eA), CpdX(eB), CpdX-D3, CpdX-D3(eA) or CpdX-D3(eB) (1 mg/kg body weight, diluted in vehicle). Following this treatment, blood was collected at 10 a.m. by retro-orbital puncture in lithium-heparin coated vials. The plasmatic levels of total cholesterol and bile acids were determined.
Liver samples were harvested. […] RNA transcripts were extracted from liver samples and the transcripts of fatty acid synthase (FASN) and Stearoyl-CoA desaturase 1 (SCD1) genes were analyzed by q-RT-PCR.

B6 male mice [2] = assay: Blood glucose and intraperitoneal glucose tolerance test after three-month treatment; format: in vivo, mouse
Protocol: B6 male mice (8-week-old) were daily subjected for three months to a subcutaneous injection of either vehicle (NaCl 0.9%), Dex, CpdX, CpdX(eA), CpdX(eB), CpdX-D3, CpdX-D3(eA) or CpdX-D3(eB) (1 mg/kg body weight, diluted in vehicle). Mice were over-night-fasted. Mouse blood glucose concentration was measured before (T0) and during two hours (T120) after glucose i.p. injection ([…] body weight).

Male mice (DBA-1 strain) = assay: Collagen-induced arthritis (CIA); format: in vivo, mouse
Protocol: Mice were treated with collagen to induce a Th17 rheumatoid arthritis-like inflammation as described by Inglis et al. (2007. Arthritis Res Ther. 9(5):R113) and Geboes et al. (2009. Arthritis Rheum. 60(2):390-5).
Male mice (DBA-1 strain) were subcutaneously-injected with 100 μg collagen per mouse on D0. The hind paw thickness at the ankle level was regularly measured with a caliper. When the ankle thickness had reached around 4 mm (T0, i.e., 30 to 50 days after the collagen injection on D0), mice were daily intraperitoneally-injected for 10 days (T0 to T10) with either vehicle (NaCl 0.9%), Dex, CpdX, CpdX(eA), CpdX(eB), CpdX-D3, CpdX-D3(eA) or CpdX-D3(eB) (1 mg/kg body weight diluted in NaCl 0.9%), and the hind paw thickness at the ankle level was daily measured with a caliper. Pictures of the hind paws were taken at days T0 and T10 (before and after the treatment with either Vehicle, Dex, CpdX, CpdX(eA), CpdX(eB), CpdX-D3, CpdX-D3(eA) or CpdX-D3(eB)), in order to assess the course of swelling.
RNA transcripts were extracted from whole hind paws of collagen-untreated and collagen-treated mice at T0 and T10. IL-1β, IL-6, IL-17a, IL-17f and TNFα transcripts were analyzed by q-RT-PCR.

Balb/C mouse ears = assay: TPA-induced irritant contact dermatitis-like inflammation; format: in vivo
Protocol: Balb/C mouse ears were topically treated with TPA to induce an “irritant contact dermatitis-like inflammation”.
Mice were treated for 4 days with TPA, then for 5 extra days (until D9) with either vehicle, TPA alone, TPA and Dex, TPA and CpdX or TPA and CpdX-D3.
At D10, RNA transcripts were extracted from mouse ear skin samples and the transcripts of CCL4, COX2, MMP13, IL-1β, IL-6, TNF-α, TSLP, IL-22 and IL-23 were analyzed by q-RT-PCR. Ear skin was harvested, and histological (with H&E staining) and immunohistochemical (with anti-TSLP antibodies) analyses were carried out.

mice = assay: House dust mite (HDM)-induced asthma-like allergic lung inflammation; format: in vivo, mouse
Protocol: Glucocorticoids have been (Pearlman et al., 1997. Ann Allergy Asthma Immunol. 78(4):356-62), and are still, widely used in asthma therapy. In order to investigate the possible CpdX anti-inflammatory activity in vivo, mice were sensitized and challenged with either ovalbumin (OVA) or house dust mite (HDM) to induce an asthma-like allergic lung inflammation.
Mice were intranasally sensitized with 1 μg HDM from DO to D4, and further intranasally sensitized with 10 μg HDM on D14 and D21. Mice were then subdivided into eight groups, and on D29, D30 and D31, each mouse was again intranasally challenged with 1 μg HDM. The first seven groups received respectively 0.5 mg/kg of body weight of Dex, CpdX, CpdX(eA), CpdX(eB), CpdX-D3, CpdX-D3(eA) or CpdX-D3(eB), while the eighth group served as a control.
On D32, the airway responsiveness was invasively determined using a computer-controlled small animal ventilator (FlexVent® system, SCIREQ Technologies). Mice were anesthetized with xylazine (15 mg/kg, i.p.), followed 15 minutes later by an i.p. injection of pentobarbital sodium (54 mg/kg). An 18-gauge metal needle was then inserted into the trachea, each mouse was connected to the FlexVent® ventilator and quasi-sinusoidally ventilated with a tidal volume of 10 mL/kg at a frequency of 150 breaths/minute and a positive end-expiratory pressure of 2 cm H2O, in order to achieve a mean lung volume close to spontaneous breathing. After baseline measurement, mice were challenged for 10 seconds with a saline aerosol and, at 4.5-minute intervals, with 50 mg/mL methacholine. Airway resistance and elastance were expressed as cmH20·s/mL and cmH2O/mL respectively.
The lung allergic inflammation was assessed by examination of the bronchoalveolar lavage (BAL) fluid from each of these HDM-challenged mice. The total BAL cells, eosinophils, neutrophils, macrophages and lymphocytes were counted. RNA transcripts were extracted from lung samples. RNA transcripts of IL-1β, IL-6, IL-4, IL-5, IL-13, Eotaxin, CCL4, IL-10 and TNFα were analyzed by q-RT-PCR. Lung tissues were harvested and histological (with H&E staining) and immunohistochemical analyses were also carried out (with eosinophil-specific and neutrophil-specific antibodies).

B6 male mice [3] = assay: Organ weights (thymus, spleen, adrenal gland, kidney) after three-month treatment; format: in vivo, mouse; settings: s.c. 1 mg/kg daily, three months
Protocol: B6 male mice (8-week-old) were daily subjected for three months to a subcutaneous injection of either vehicle (NaCl 0.9%), Dex, CpdX, CpdX(eA), CpdX(eB), CpdX-D3, CpdX-D3(eA) or CpdX-D3(eB) (1 mg/kg body weight, diluted in vehicle). Following these treatments, four organs (thymus, spleen, adrenal gland and kidney) were harvested and weighted.

## [2H]C([2H])([2H])Oc1ccc(F)cc1C(C)(C)CC(O)(CNc1ccc2c(c1)COC2=O)C(F)(F)F (racemic) [CpdX-D3, 5-{4-[2-(methoxy-D3)-5-fluorophenyl]-2-hydroxy-4-methyl-2-(trifluoro-methyl)pentylamino}isobenzofuran-1(3H)-one]
B6 male mice [1]; 5% Red oil staining of frozen sections
  lipid deposition in the liver: not observed
B6 male mice [1]; q-RT-PCR, 'but not' = no increase
  transcripts of fatty acid synthase (FASN) and Stearoyl-CoA desaturase 1 (SCD1) in liver: but not
B6 male mice [1]; 'but not' = no clear increase
  blood cholesterol and bile acids' levels: but not
B6 male mice [2]; three months, conclusion
  control of the blood glucose level: does not significantly affect
B6 male mice [2]; two-hour period after glucose i.p. injection (2 mg/kg body weight)
  blood glucose level in intraperitoneal glucose tolerance test (IPGTT): no significant difference
Male mice (DBA-1 strain); i.p. 1 mg/kg daily for 10 days (T0 to T10)
  hind paw thickness at the ankle level: rapid decrease
Male mice (DBA-1 strain); q-RT-PCR, T10, 'but not' = not repressed
  RNA transcripts of the pro-inflammatory genes expressed in the hind paws (IL-1β, IL-6, IL-17a, IL-17f, TNFα): similarly repressed
Male mice (DBA-1 strain); student t test, FIG. 17 legend
  hind paw thickness, difference compared to the Dex treatment: not significant
Balb/C mouse ears; compared to the control, data not shown
  TPA-induced ear skin inflammation, histological analysis: significantly decreased
Balb/C mouse ears; ear extracts, q-RT-PCR, D10
  TPA-induced transcription of pro-inflammatory genes: repressed, as efficiently as Dex
Balb/C mouse ears; immunochemistry with TSLP-specific antibody, data not shown
  expression of TSLP in TPA-treated mouse epidermis: similarly strongly decreased
Balb/C mouse ears; topical, 5 days co-treatment with TPA
  TPA-induced skin inflammation: significantly decreased
mice; 0.5 mg/kg on D29-D31, BAL on D32
  number of neutrophils and macrophages in BAL: No significant change
mice; 0.5 mg/kg on D29-D31, BAL on D32, vs control group
  total number of BAL cells, eosinophils and lymphocytes: significantly decreased
mice; eosinophil-specific antibodies, data not shown
  eosinophils in lung, immunohistochemistry: decreased
mice; histology of lung paraffin sections
  peribronchiolar and perivascular inflammatory cell infiltration: strongly decreased
mice; neutrophil-specific antibody, data not shown
  neutrophils in lung, immunohistochemistry: no significant change
mice; q-RT-PCR, D32
  expressions of IL-1β, IL-6, IL-4, IL-5, IL-13, Eotaxin and CCL4 (pro-inflammatory genes) in lung samples: significantly and similarly decreased
mice; q-RT-PCR, data not shown
  expressions of IL-10 and TNFα in lung samples: not affected
mice; response to methacholine 50 mg/mL, D32
  HDM-induced airway hyperresponsiveness (AHR), airway resistance and elastance: similarly reduced
B6 male mice [3]
  spleen weight: not decreased
  thymus apoptosis / thymus found: did not result in any significant thymus apoptosis
  weight of the adrenal gland: increased

— patent publication US20190151283A1, “NON-STEROIDAL SELECTIVE GLUCOCORTICOID RECEPTOR AGONISTIC MODULATORS (SEGRAMs) AND USES THEREOF” (ASSOCIATION POUR LA RECHERCHE À L'IGBMC (ARI), priority 2017, published 2019)
